Experimental data from patent publication US20120101169A1, “METHODS OF PROVIDING ANTICOAGULATION EFFECTS IN SUBJECTS” (Penwest Pharmaceuticals Co., priority 2010, published 2012).
Read-outs that look alike come from different tables or passages of the source. Marks after values point to notes of the source that are not given here.

Tests used:
[1] = Single-dose ascending-dose pharmacokinetics of ATQ in healthy volunteers (Example 4); details: for CL/F: fed conditions, mean
Protocol: Healthy adult male subjects were enrolled into 1 of 6 cohorts of 10 subjects, and randomly assigned to receive either alpha-tocopherolquinone (ATQ) (8 subjects) in olive oil or placebo (2 subjects). Safety, tolerability and PK characteristics of ATQ were assessed under fasted conditions (low dose of 0.25 g and 0.5 g) and fed conditions (range of 0.5 g to 6.0 g), during co-administration with 400 IU vitamin E (2.0 g), and following a 2.2 g total dose administered in 3 equally-divided doses of 0.735 g, and 7 hours apart. There was a 2-week interval between dosing of cohorts while a medical review of the data collected on the preceding dose was conducted. Blood samples for the measurement of ATQ concentration were collected pre-dose and up to 168 hours following dose administration. All plasma ATQ concentrations were determined using a GLP validated bioanalytical method. Blood samples for the measurement of vitamin E concentrations were collected prior to and at 24 hours following dose administration (Cohorts 1, 2, and 3) and serially for up to 24 hours in Cohorts 4 through 6 except for Cohort 4, Period 2 (vitamin E co-administration) where samples were collected for up to 96 hours. Urine was collected for the measurement of ATQ and its metabolites in pooled intervals up to 72 hours post-dose for all cohorts.

[2] = Food-effect and regimen pharmacokinetics, single 3-g daily ATQ dose (Example 5 Part 1); assay type: in vivo, human; details: for Cmax / AUC(0-inf) / Vd/F / half-life / Tmax: male, human, plasma, oral, 3 g; for Vd/F: read-out: Vz/F
Protocol: The study was conducted in 2 parts. Part 1 was conducted in healthy male subjects only while Part 2 was conducted in healthy male and female subjects. The intent of this study part was to optimize the dosage regimen and diet for the multiple-dose safety and tolerance Part 2 of the study. All plasma ATQ concentrations were determined using a GLP validated bioanalytical method. ATQ was administered as an oral solution in oil (0.49 g/mL). The placebo solution consisted of olive oil alone.
The dose of 3-g ATQ was selected for Part 1 as it most likely represented the high end of the exposure spectrum selected for the subsequent tolerance trial. For Part 1, serial blood samples for the measurement of the plasma levels of ATQ were collected prior to and following each oral dose administered on Day 1 through 36 hours following the morning dose on Day 1 (or 24 hours post-evening dose).

[3] = tested on: protein C; experiment: Extended coagulation biomarker panel: protein C; assay type: in vivo, human; details: Part 2, 0.67 g TID, Day 4
Excerpt: (§1) In Part 1 the extended panel was collected at screening and at check-in (Day −1) and Day 2 of each period unless the study results warranted a different sampling schedule. In Part 2, the same of the exploratory coagulation biomarkers were collected at screening, check-in, Day 4, and Day 8 in Cohorts 1 and 2, or at check-in, Day 7, and Day 14 in Cohorts 3 and 4 with the following exception: in Cohorts 3 and 4, platelet function was collected at check-in only or when medically indicated.

[4] = tested on: protein S; experiment: Extended coagulation biomarker panel: protein S; assay type: in vivo, human; details: Part 2, 0.67 g TID, Day 4
Excerpt: as §1

[5] = tested on: factor X; experiment: Extended coagulation biomarker panel: factor X; assay type: in vivo, human
Excerpt: as §1

[6] = tested on: antithrombin (AT); experiment: Extended coagulation biomarker panel: antithrombin; parameters: species or system human; details: in vivo
Excerpt: as §1

[7] = tested on: coagulation tests (PT, INR, PTT); experiment: Coagulation tests (PT, INR, PTT) after single ATQ dose (Example 4); details: for Highest postdose PT value above ULN: one subject
Excerpt: The INR is the ratio of a subject's prothombin time (PTtest) to the prothombin time of a normal (control) sample (PTnormal), raised to the power of the International Sensitivity Index (ISI) value for the analytical system:
“Prothrombin time” or “PT” refers to the time it takes the blood plasma of a subject to clot after the addition of a thromboplastin reagent. “Thromboplastin reagent” refers to a standardized commercial product which is used in blood coagulation assays to measure blood clotting time. Non-limiting examples of thromboplastin reagents include RecombiPlasTin (Beckman Coulter, Brea, Calif.), INNOVN® and THROMBOREL® (Dade Behring, Liederbach, Germany).
As used herein, the terms “activated partial thromboplastin time” or “aPTT” or “partial thromboplastin time” or “PTT,” refer to the time it takes the blood plasma of a subject to clot after the addition of a phospholipid (i.e., partial thromboplastin) and calcium chloride. Non-limiting examples of phospholipids for use in determining aPTT include silica and kaolin.

[8] = 3-g BID, high-fat meal, mean, N = 6
[9] = 3-g BID, standard meal, mean, N = 6
[10] = 3-g TID, high-fat meal, mean, N = 5
[11] = 3-g TID, standard meal, mean, N = 6
[12] = Cohort 5 (6-g ATQ), subject with highest PT
[13] = Cohort 6 (2.2-g as 0.735-g TID)
[14] = of the 48 subjects who received ATQ

SMILES: CC1=C(C)C(=O)C(CC[C@](C)(O)CCC[C@H](C)CCC[C@H](C)CCCC(C)C)=C(C)C1=O [ATQ, alpha-tocopherolquinone]
- Increase in bioavailability with a high-fat meal ([1]; 0.5 g with high-fat meal versus fasted): over 60 fold
- ATQ concentration versus time profile with and without vitamin E ([1]; 2 g QD dose, with and without 400-IU of vitamin E): essentially unchanged
- CL/F ([1]; 2.2 g (0.735 g TID), N = 8): 22.731 L/h
- Effect of dividing the dose on ATQ bioavailability ([1]; 2.2 g as 3 doses of 0.735 g 7 hours apart rather than a single unit): significantly increased ATQ bioavailability
- Baseline-adjusted ATQ concentration at 24 hours as share of Cmax ([1]; 24 hours post-dose): less than 1%
- Tmax ([1]; male, human, plasma, oral): 6 h
- Time for ATQ concentrations to return to endogenous baseline levels ([1]; post-dose): ≤ 24 h
- CL/F ([1]; single 0.5 g dose, N = 6): 25.910[b] L/h
- CL/F ([1]; single 1.0 g dose, N = 7): 15.950[c] L/h
- CL/F ([1]; single 2.0 g dose, N = 7): 33.404[c] L/h
- CL/F ([1]; single 6.0 g dose, N = 6): 62.824[b] L/h
- Dose proportionality of absorption ([1]; single doses 0.5 g to 6.0 g after high-fat breakfast): dose proportional between 0.5 g and 1 g but was blunted at higher doses
- Absorption under fasted conditions ([1]; single oral doses 0.25 g and 0.5 g, fasted): poorly absorbed
- Unchanged ATQ in urine samples ([1]; urine collected up to 72 hours post-dose): not detected
- CLpo [2, 8]: 21.4 L/h
- CLpo [2, 9]: 22.0 L/h
- CLpo [2, 10]: 18.2 L/h
- CLpo [2, 11]: 18.1 L/h
- Overall exposure (AUC) BID versus TID ([2]; 3-g dose as 2×1.5-g every 12 hours or 3×1.0-g every 6 hours): similar
- Cmax ([2]; 3-g BID (2×1.5 g 12 h apart), high-fat meal, baseline-adjusted, mean, N = 6, read-out: Cmax): 13400 ng/mL
- Cmax ([2]; 3-g BID (2×1.5 g 12 h apart), standard meal, baseline-adjusted, mean, N = 6, read-out: Cmax): 15300 ng/mL
- AUC(0-inf) ([2]; 3-g BID, high-fat meal, baseline-adjusted, mean, N = 6): 152 µg·h/mL
- Vd/F [2, 8]: 132 L
- half-life ([2]; 3-g BID, high-fat meal, mean, N = 6, read-out: t1/2 (converted)): 4.2 h
- Tmax ([2]; 3-g BID, high-fat meal, median, N = 6, read-out: Tmax): 10.5 h
- AUC(0-inf) ([2]; 3-g BID, standard meal, baseline-adjusted, mean, N = 6): 157 µg·h/mL
- Vd/F [2, 9]: 143 L
- half-life ([2]; 3-g BID, standard meal, mean, N = 6, read-out: t1/2 (converted)): 4.34 h
- Tmax ([2]; 3-g BID, standard meal, median, N = 6, read-out: Tmax): 6 h
- Cmax ([2]; 3-g TID (3×1.0 g 6 h apart), high-fat meal, baseline-adjusted, mean, N = 5, read-out: Cmax): 14200 ng/mL
- Cmax ([2]; 3-g TID (3×1.0 g 6 h apart), standard meal, baseline-adjusted, mean, N = 6, read-out: Cmax): 15000 ng/mL
- AUC(0-inf) ([2]; 3-g TID, high-fat meal, baseline-adjusted, mean, N = 5): 178 µg·h/mL
- Vd/F [2, 10]: 122 L
- half-life ([2]; 3-g TID, high-fat meal, mean, N = 5, read-out: t1/2 (converted)): 4.88 h
- Tmax ([2]; 3-g TID, high-fat meal, median, N = 5, read-out: Tmax): 17.5 h
- AUC(0-inf) ([2]; 3-g TID, standard meal, baseline-adjusted, mean, N = 6): 169 µg·h/mL
- Vd/F [2, 11]: 139 L
- half-life ([2]; 3-g TID, standard meal, mean, N = 6, read-out: t1/2 (converted)): 5.37 h
- Tmax ([2]; 3-g TID, standard meal, median, N = 6, read-out: Tmax): 12.7 h
- Cmax ([2]; single 3-g daily dose, across treatments, read-out: mean Cmax range): 13400 to 15300 ng/mL
- half-life ([2]; single 3-g daily dose, across treatments, read-out: mean t1/2 values (range across treatments)): 4.2 to 5.37 h
- Tmax ([2]; single 3-g daily dose, across treatments, read-out: median Tmax (range across treatments)): 6 to 17.5 h
- ATQ exposure (Cmax and AUC) high-fat versus standard meal ([2]; single 3-g daily dose): no difference
- Protein C activity [3]: 109%
- Decrease from baseline activity of protein S [4]: 56%
- Decrease from baseline activity of factor X ([5]; Part 2, 0.67 g TID, Day 4): 62%
- Decrease from baseline activity of factor X ([5]; Part 2, Day 14): 68%
- Effect on the activity of AT [6]: did not appear to affect
- INR change ([7]; 2 g administered as a single entity (2 g QD)): NO INR change
- Subjects with 24-hour postdose PT value above ULN ([7]; Cohort 3 (1-g ATQ)): 2 of 8
- 24-hour postdose PT value above ULN ([7]; Cohort 3 (1-g ATQ), 2 of 8 subjects): 5.2%
- Subjects with postdose PT values above ULN ([7]; Cohort 5 (6-g ATQ)): 5 of 8
- Highest postdose PT value above ULN ([7]; Cohort 5 (6-g ATQ)): 39.1%
- Increase in INR above ULN [7, 12]: 23.1%
- Increase in PTT above ULN [7, 12]: 5.6%
- Subjects with postdose PT values above ULN [7, 13]: 4 of 8
- Highest postdose PT value above ULN [7, 13]: 20.9%
- Increase in INR above ULN ([7]; Cohort 6 (2.2-g as 0.735-g TID), subject with highest PT): 7.7%
- Subjects with a 24-hour postdose INR value above ULN [7, 14]: 2 subjects
- Subjects with a 24-hour postdose PTT value above ULN [7, 14]: 1 subject
- Subjects with postdose PT values above the upper limit of normal (ULN) [7, 14]: 11 subjects
- Time for INR and PTT values to return to normal range ([7]; postdose, all subjects): ≤ 48 h
- Effect on the coagulation tests, especially PT and INR ([7]; single doses, 48 subjects who received ATQ): slight but not clinically significant effect
- Reversibility of changes in hemostasis ([7]; upon cessation of the treatment): fully reversible
